Assays:
Assay in all cases: Kinobeads competition binding, HL60 cell lysate
Parameters in all cases: endogenous in cells
Conditions in all cases: 10 μM free compound
[1] = target: CK2a1 (Homo sapiens, UniProt P68400)
In short: (§1)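 Free compound 10 μM → HL60 lysate; affinity matrix with same compound immobilized, 2 h 4 °C; SDS elution, SDS-PAGE, in-gel trypsin; iTRAQ 114/117 labels vs 0.5% DMSO control; nano-LC-MS/MS, reporter-ion quantitation.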

[2] = target: CK2a2 (Homo sapiens, UniProt P19784)
In short: as §1

[3] = target: JAK1 (Homo sapiens, UniProt P23458)
In short: as §1

[4] = target: MLK3 (Homo sapiens, UniProt Q16584)
In short: as §1

[5] = target: T1, NEK3 (Homo sapiens, UniProt P51956)
T1 sequence (P51956 1-506): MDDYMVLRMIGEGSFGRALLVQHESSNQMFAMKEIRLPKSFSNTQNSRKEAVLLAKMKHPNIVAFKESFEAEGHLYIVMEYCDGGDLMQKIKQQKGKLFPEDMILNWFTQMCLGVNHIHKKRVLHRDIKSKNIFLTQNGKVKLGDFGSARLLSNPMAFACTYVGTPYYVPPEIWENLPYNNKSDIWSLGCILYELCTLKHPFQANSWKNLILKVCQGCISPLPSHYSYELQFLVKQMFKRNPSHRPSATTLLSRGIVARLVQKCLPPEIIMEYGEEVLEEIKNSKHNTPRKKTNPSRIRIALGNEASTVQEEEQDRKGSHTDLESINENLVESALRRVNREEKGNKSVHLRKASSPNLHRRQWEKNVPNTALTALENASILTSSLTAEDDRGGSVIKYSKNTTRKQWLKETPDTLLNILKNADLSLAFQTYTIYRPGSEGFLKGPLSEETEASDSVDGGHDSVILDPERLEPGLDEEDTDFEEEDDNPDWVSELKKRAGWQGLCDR
In short: as §1

[6] = target: T2, PIP5K2A (Homo sapiens, UniProt P48426)
T2 sequence (P48426 1-406): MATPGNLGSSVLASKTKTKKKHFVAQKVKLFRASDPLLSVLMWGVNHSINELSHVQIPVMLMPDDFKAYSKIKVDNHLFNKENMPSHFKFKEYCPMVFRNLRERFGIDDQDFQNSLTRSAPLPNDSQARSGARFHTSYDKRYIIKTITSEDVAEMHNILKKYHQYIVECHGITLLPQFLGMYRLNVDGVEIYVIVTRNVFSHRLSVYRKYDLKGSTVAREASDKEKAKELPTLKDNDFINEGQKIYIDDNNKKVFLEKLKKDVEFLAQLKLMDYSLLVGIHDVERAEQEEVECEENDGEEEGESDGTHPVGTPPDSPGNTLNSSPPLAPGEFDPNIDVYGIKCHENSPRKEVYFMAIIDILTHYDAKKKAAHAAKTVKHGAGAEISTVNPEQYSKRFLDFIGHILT
In short: as §1

[7] = target: PKCa (Homo sapiens, UniProt P17252)
In short: as §1

[8] = target: PLK1 (Homo sapiens, UniProt P53350)
In short: as §1

[9] = target: PYK2 (Homo sapiens, UniProt Q14289)
In short: as §1

SMILES: CS(=O)(=O)Nc1ccccc1Nc1nc(Nc2cccc(OCCN)c2)ncc1Cl [CZC31326, N-(2-(2-(3-(2-aminoethoxy)phenylamino)-5-chloropyrimidin-4-ylamino)phenyl)methanesulfonamide]
- inhibition at 10 µM [1]: 97.9%
- inhibition at 10 µM [2]: 97.7%
- Competition % [3]: 97.8%
- Competition % [4]: 96.5%
- inhibition at 10 µM [5]: 97%
- inhibition at 10 µM [6]: 97.6%
- inhibition at 10 µM [7]: 96.2%
- inhibition at 10 µM [8]: 97.8%
- inhibition at 10 µM [9]: 95.7%

Source: patent publication US20120270237A9, “METHODS FOR THE IDENTIFICATION OF KINASE INTERACTING MOLECULES AND FOR THE PURIFICATION OF KINASE PROTEINS” (Cellzone AG, priority 2009, published 2012)
